Results published in patent publication US4795751A, “5-substituted-6,8-difluoroquinolines useful as antibacterial agents” (Dainippon Pharmaceutical Co., Ltd., priority 1985, dated 1989).
≈ marks a conversion by molar mass, not a printed value.

Columns and labels:
M. bovis P-7101 = assay: microbe, parasite or virus in culture; type: cell-based; settings: Mycobacterium tuberculosis variant bovis, P7101, 20 h, read-out: minimum inhibitory concentration (MIC)
S. aureus No. 50774 = assay: In vitro antibacterial activity, twofold agar-dilution method; type: cell-based; settings: Staphylococcus aureus; S. aureus No. 50774 (Gram +); Mueller-Hinton agar, 20 h, 37° C.; calculated for free base; read-out: minimum inhibitory concentration (MIC)
Description: (§1) The numbers in the table show minimum inhibitory concentrations (MIC) (μg/ml), calculated for free base. The minimum inhibitory concentration was determined by the twofold agar-dilution method, which was recommended by Japan Society of Chemotherapy (Chemotherapy, 29(1), 76(1981)), using Muller-Hinton agar. One loopful of an overnight culture of test organisms in Mueller-Hinton broth was inoculated onto 10-ml drug-containing agar layers in petri dishes. Bacterial inocula contained approximately 10^6 colonyl-formingunits. Bacterial growth was observed after 20-hour incubation at 37° C. The MIC was defined as the lowest drug concentration which prevented visible bacterial growth.

S. aureus No. 80 = assay: as above; type: cell-based; settings: Staphylococcus aureus; S. aureus No. 80 (Gram +); Mueller-Hinton agar, 20 h, 37° C.; calculated for free base; read-out: minimum inhibitory concentration (MIC)
Description: as §1

B. subtilis PCI 219 = assay: as above; type: cell-based; settings: Bacillus subtilis, PCI219; B. subtilis PCI 219 (Gram +); Mueller-Hinton agar, 20 h, 37° C.; calculated for free base; read-out: minimum inhibitory concentration (MIC)
Description: as §1

Al. faecalis P-7001 = assay: as above; type: cell-based; settings: Alcaligenes faecalis, P7001; Al. faecalis P-7001 (Gram -); Mueller-Hinton agar, 20 h, 37° C.; calculated for free base; read-out: minimum inhibitory concentration (MIC)
Description: as §1

E. coli P-51213 = assay: as above; type: cell-based; settings: Escherichia coli, P51213; E. coli P-51213 (Gram -); Mueller-Hinton agar, 20 h, 37° C.; calculated for free base; read-out: minimum inhibitory concentration (MIC)
Description: as §1

P. aeruginosa No. 12 = assay: as above; type: cell-based; settings: Pseudomonas aeruginosa; P. aeruginosa No. 12 (Gram -); Mueller-Hinton agar, 20 h, 37° C.; calculated for free base; read-out: minimum inhibitory concentration (MIC)
Description: as §1

S. epidermidis No. 8 = assay: as above; type: cell-based; settings: Staphylococcus epidermidis; S. epidermidis No. 8 (Gram +); Mueller-Hinton agar, 20 h, 37° C.; calculated for free base; read-out: minimum inhibitory concentration (MIC)
Description: as §1

Ac. calcoaceticus P-6901 = assay: as above; type: cell-based; settings: Acinetobacter calcoaceticus, P6901; Ac. calcoaceticus P-6901 (Gram -); Mueller-Hinton agar, 20 h, 37° C.; calculated for free base; read-out: minimum inhibitory concentration (MIC)
Description: as §1

S. aureus 209P JC-1 = assay: as above; type: cell-based; settings: Staphylococcus aureus; S. aureus 209P JC-1 (Gram +); Mueller-Hinton agar, 20 h, 37° C.; calculated for free base; read-out: minimum inhibitory concentration (MIC)
Description: as §1

[1] = Acute oral toxicity in mice; settings: mouse, in vivo, po
Description: (§2) A solution containing each of compounds 1, 2 and 3 of this invention in various concentrations was orally given to male mice (ddY) at a dose of 0.1 ml per 10 g of body weight. The number of dead mice was counted after 7 days, and the value of median lethal dose (LD50, mg/kg) was calculated in accordance with the Behrens-Kaerber method.

male mice (ddY) = assay: Acute oral toxicity in mice; settings: conclusion in words from Table 5
Description: as §2

[2] = tested on: Pseudomonas aeruginosa 12; assay: In vivo efficacy against systemic infections in mice; set-up: species or system Pseudomonas aeruginosa; male mice (ddY-S); settings: Pseudomonas aeruginosa, 12, 168 h, oral, intraperitoneal infection about 5×10^3 cells, 4% mucin, twice, immediately and 6 h after infection, 7 days, calculated for free base, read-out: median effective dose (ED50)
Description: (§3) Compounds were each dissolved in deionized water. Each of the solutions was orally administered to mice infected with each of the test organisms under the conditions shown hereinbelow, and the median effective dose (ED50) was calculated by probit analysis. The numerals in the table show ED50 (mg/kg) value, calculated for free base.
(§4) Mice: Male mice (ddY-S) weighing about 20 g
Pseudomonas aeruginosa 12
Intraperitoneal infection with about 5×10^3 cells per mouse suspended in tryptosoy broth with 4% mucin.
(§5) Four times, immediately, 6, 24 and 30 hours after infection in case of Streptococcus pneumoniae 1 Neufeld. Twice, immediately and 6 hours after infection in case of other organisms.
(§6) For 14 days in case of Staphylococcus aureus 50774 and Streptocuccus pneumoniae 1 Neufeld. For 7 days in case of other organisms.

[3] = tested on: Streptococcus pyogenes A65; assay: as above; set-up: species or system Streptococcus pyogenes; male mice (ddY-S); settings: A65, 168 h, oral, intraperitoneal infection 3×10^7 cells, twice, immediately and 6 h after infection, 7 days, calculated for free base, read-out: median effective dose (ED50)
Description: as §3, §4
Streptococcus pyogenes A65
Intraperitoneal infection with 3×10^7 cells per mouse suspended in brain heart infusion broth.
as §5, §6

SMILES: CC1CN(c2c(F)c(N)c3c(=O)c(C(=O)O)cn(C4CC4)c3c2F)CC(C)N1 (stereo not drawn) [Compound 2, 5-Amino-1-cyclopropyl-6,8-difluoro-7-(3,5-dimethyl-1-piperazinyl)-1,4-dihydro-4-oxoquinoline-3-carboxylic acid]
- MIC (M. bovis P-7101): 0.39 µg/mL (≈ 0.994 µM)
- MIC (S. aureus No. 50774): 0.025 µg/mL (≈ 0.0637 µM)
- MIC (S. aureus No. 80): 0.0125 µg/mL (≈ 0.0319 µM)
- MIC (B. subtilis PCI 219): 0.05 µg/mL (≈ 0.127 µM)
- MIC (Al. faecalis P-7001): 0.2 µg/mL (≈ 0.51 µM)
- MIC (E. coli P-51213): 0.05 µg/mL (≈ 0.127 µM)
- MIC (P. aeruginosa No. 12): 0.2 µg/mL (≈ 0.51 µM)
- MIC (S. epidermidis No. 8): 0.025 µg/mL (≈ 0.0637 µM)
- MIC (Ac. calcoaceticus P-6901): 0.0125 µg/mL (≈ 0.0319 µM)
- MIC (S. aureus 209P JC-1): 0.05 µg/mL (≈ 0.127 µM)
- LD50 at 168 h [1]: > 2000 mg/kg
- oral toxicity (male mice (ddY)): low oral toxicity

SMILES: CN1CCN(c2c(F)c(N)c3c(=O)c(C(=O)O)cn(C4CC4)c3c2F)CC1 [Compound 4, 5-Amino-1-cyclopropyl-6,8-difluoro-7-(4-methyl-1-piperazinyl)-1,4-dihydro-4-oxoquinoline-3-carboxylic acid]
- MIC (M. bovis P-7101): 0.39 µg/mL (≈ 1.03 µM)
- MIC (S. aureus No. 50774): 0.05 µg/mL (≈ 0.132 µM)
- MIC (S. aureus No. 80): 0.025 µg/mL (≈ 0.0661 µM)
- MIC (B. subtilis PCI 219): 0.1 µg/mL (≈ 0.264 µM)
- MIC (Al. faecalis P-7001): 0.2 µg/mL (≈ 0.529 µM)
- MIC (E. coli P-51213): 0.1 µg/mL (≈ 0.264 µM)
- MIC (P. aeruginosa No. 12): 0.2 µg/mL (≈ 0.529 µM)
- MIC (S. epidermidis No. 8): 0.05 µg/mL (≈ 0.132 µM)
- MIC (Ac. calcoaceticus P-6901): 0.025 µg/mL (≈ 0.0661 µM)
- MIC (S. aureus 209P JC-1): 0.1 µg/mL (≈ 0.264 µM)

SMILES: Nc1c(F)c(N2CCNCC2)c(F)c2c1c(=O)c(C(=O)O)cn2C1CC1 [Compound 3, 5-Amino-1-cyclopropyl-6,8-difluoro-7-(1-piperazinyl)-1,4-dihydro-4-oxoquinoline-3-carboxylic acid]
- MIC (M. bovis P-7101): 0.39 µg/mL (≈ 1.07 µM)
- MIC (S. aureus No. 50774): 0.05 µg/mL (≈ 0.137 µM)
- MIC (S. aureus No. 80): 0.05 µg/mL (≈ 0.137 µM)
- MIC (B. subtilis PCI 219): 0.1 µg/mL (≈ 0.274 µM)
- MIC (Al. faecalis P-7001): 0.2 µg/mL (≈ 0.549 µM)
- MIC (E. coli P-51213): 0.1 µg/mL (≈ 0.274 µM)
- MIC (P. aeruginosa No. 12): 0.2 µg/mL (≈ 0.549 µM)
- MIC (S. epidermidis No. 8): 0.05 µg/mL (≈ 0.137 µM)
- MIC (Ac. calcoaceticus P-6901): 0.05 µg/mL (≈ 0.137 µM)
- MIC (S. aureus 209P JC-1): 0.05 µg/mL (≈ 0.137 µM)
- LD50 at 168 h [1]: > 2000 mg/kg
- oral toxicity (male mice (ddY)): low oral toxicity

SMILES: CCN1CCN(c2c(F)c(N)c3c(=O)c(C(=O)O)cn(C4CC4)c3c2F)CC1 [Compound 5, 5-Amino-1-cyclopropyl-6,8-difluoro-7-(4-ethyl-1-piperazinyl)-1,4-dihydro-4-oxoquinoline-3-carboxylic acid]
- MIC (M. bovis P-7101): 0.39 µg/mL (≈ 0.994 µM)
- MIC (S. aureus No. 50774): 0.025 µg/mL (≈ 0.0637 µM)
- MIC (S. aureus No. 80): 0.025 µg/mL (≈ 0.0637 µM)
- MIC (B. subtilis PCI 219): 0.1 µg/mL (≈ 0.255 µM)
- MIC (Al. faecalis P-7001): 0.2 µg/mL (≈ 0.51 µM)
- MIC (E. coli P-51213): 0.05 µg/mL (≈ 0.127 µM)
- MIC (P. aeruginosa No. 12): 0.39 µg/mL (≈ 0.994 µM)
- MIC (S. epidermidis No. 8): 0.05 µg/mL (≈ 0.127 µM)
- MIC (Ac. calcoaceticus P-6901): 0.0125 µg/mL (≈ 0.0319 µM)
- MIC (S. aureus 209P JC-1): 0.05 µg/mL (≈ 0.127 µM)

SMILES: Nc1c(F)c(N2CCNC(CF)C2)c(F)c2c1c(=O)c(C(=O)O)cn2C1CC1 (stereo not drawn) [Compound 6, 5-Amino-1-cyclopropyl-6,8-difluoro--7-(3-fluoromethyl-1-piperazinyl)-1,4-dihydro-4-oxoquinoline-3-carboxylic acid]
- MIC (M. bovis P-7101): 0.1 µg/mL (≈ 0.252 µM)
- MIC (S. aureus No. 50774): 0.0125 µg/mL (≈ 0.0315 µM)
- MIC (S. aureus No. 80): 0.0063 µg/mL (≈ 0.0159 µM)
- MIC (B. subtilis PCI 219): 0.025 µg/mL (≈ 0.0631 µM)
- MIC (Al. faecalis P-7001): 0.05 µg/mL (≈ 0.126 µM)
- MIC (E. coli P-51213): 0.05 µg/mL (≈ 0.126 µM)
- MIC (P. aeruginosa No. 12): 0.2 µg/mL (≈ 0.505 µM)
- MIC (S. epidermidis No. 8): 0.025 µg/mL (≈ 0.0631 µM)
- MIC (Ac. calcoaceticus P-6901): 0.0063 µg/mL (≈ 0.0159 µM)
- MIC (S. aureus 209P JC-1): 0.025 µg/mL (≈ 0.0631 µM)

SMILES: CCn1cc(C(=O)O)c(=O)c2c(N)c(F)c(N3CCNCC3)c(F)c21 [Compound A, 5-amino-1-ethyl-6,8-difluoro-7-(1-piperazinyl)-1,4-dihydro-4-oxoquinoline-3-carboxylic acid, reference compound]
- MIC (M. bovis P-7101): 3.13 µg/mL (≈ 8.88 µM)
- ED50 [2]: 15 mg/kg
- MIC (S. aureus No. 50774): 0.2 µg/mL (≈ 0.568 µM)
- MIC (S. aureus No. 80): 0.2 µg/mL (≈ 0.568 µM)
- MIC (B. subtilis PCI 219): 0.39 µg/mL (≈ 1.11 µM)
- MIC (Al. faecalis P-7001): 0.78 µg/mL (≈ 2.21 µM)
- MIC (E. coli P-51213): 0.39 µg/mL (≈ 1.11 µM)
- MIC (P. aeruginosa No. 12): 0.78 µg/mL (≈ 2.21 µM)
- MIC (S. epidermidis No. 8): 0.39 µg/mL (≈ 1.11 µM)
- MIC (Ac. calcoaceticus P-6901): 0.2 µg/mL (≈ 0.568 µM)
- MIC (S. aureus 209P JC-1): 0.2 µg/mL (≈ 0.568 µM)
- ED50 [3]: > 25 mg/kg
